# Assay results published in patent publication US10670605B2, “Cysteine reactive probes and uses thereof” (The Scripps Research Institute, priority 2015, dated 2020).
# Legend:
# Experiment in all cases: Competitive isoTOP-ABPP in situ (fragment-treated cells)
# Assay type in all cases: cell-based
# [1] = biological target: T1, cysteines in MDA-MB-231 and Ramos cells (Homo sapiens, UniProt Q96P48); conditions: 200 μM, insitu
# T1 sequence (Q96P48 1-1450): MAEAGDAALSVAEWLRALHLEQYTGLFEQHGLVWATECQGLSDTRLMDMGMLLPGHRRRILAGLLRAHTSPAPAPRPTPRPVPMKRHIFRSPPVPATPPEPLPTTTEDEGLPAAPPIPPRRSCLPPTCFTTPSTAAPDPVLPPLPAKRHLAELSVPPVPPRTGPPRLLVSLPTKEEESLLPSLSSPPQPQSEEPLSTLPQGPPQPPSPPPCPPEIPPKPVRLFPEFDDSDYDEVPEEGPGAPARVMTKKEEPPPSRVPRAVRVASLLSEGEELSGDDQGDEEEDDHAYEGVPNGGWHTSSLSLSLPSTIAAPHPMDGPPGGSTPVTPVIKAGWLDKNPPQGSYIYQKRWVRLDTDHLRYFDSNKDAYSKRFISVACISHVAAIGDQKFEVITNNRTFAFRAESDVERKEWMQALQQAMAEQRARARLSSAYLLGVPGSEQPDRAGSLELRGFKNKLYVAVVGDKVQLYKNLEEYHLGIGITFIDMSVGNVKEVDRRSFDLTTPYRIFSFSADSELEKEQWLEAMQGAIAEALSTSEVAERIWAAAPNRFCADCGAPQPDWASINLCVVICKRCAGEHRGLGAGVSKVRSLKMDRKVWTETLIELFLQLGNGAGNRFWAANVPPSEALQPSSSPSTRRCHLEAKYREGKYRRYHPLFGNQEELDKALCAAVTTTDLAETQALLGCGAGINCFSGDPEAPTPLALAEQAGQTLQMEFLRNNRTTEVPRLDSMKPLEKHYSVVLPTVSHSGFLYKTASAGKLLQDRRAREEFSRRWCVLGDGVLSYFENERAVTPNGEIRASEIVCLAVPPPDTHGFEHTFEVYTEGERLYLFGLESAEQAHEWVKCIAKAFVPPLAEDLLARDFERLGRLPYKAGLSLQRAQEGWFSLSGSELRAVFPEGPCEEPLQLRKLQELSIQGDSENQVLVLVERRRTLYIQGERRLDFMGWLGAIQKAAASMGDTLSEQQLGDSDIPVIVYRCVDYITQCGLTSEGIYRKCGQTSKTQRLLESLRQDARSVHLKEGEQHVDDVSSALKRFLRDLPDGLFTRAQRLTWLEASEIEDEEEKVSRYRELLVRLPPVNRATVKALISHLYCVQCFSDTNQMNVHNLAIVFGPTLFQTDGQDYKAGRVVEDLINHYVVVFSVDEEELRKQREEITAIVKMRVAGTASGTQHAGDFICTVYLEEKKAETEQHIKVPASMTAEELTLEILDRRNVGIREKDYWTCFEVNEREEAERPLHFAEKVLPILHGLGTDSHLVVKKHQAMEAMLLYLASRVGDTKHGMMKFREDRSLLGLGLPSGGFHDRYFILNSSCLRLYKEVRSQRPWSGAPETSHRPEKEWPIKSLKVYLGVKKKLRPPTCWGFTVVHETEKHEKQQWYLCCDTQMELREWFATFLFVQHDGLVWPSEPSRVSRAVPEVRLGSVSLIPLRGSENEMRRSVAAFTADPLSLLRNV
# [2] = biological target: cysteines in MDA-MB-231 and Ramos cells (Homo sapiens, UniProt Q96N67)
# [3] = biological target: T2, cysteines in MDA-MB-231 and Ramos cells (Homo sapiens, UniProt Q96RS6)
# T2 sequence (Q96RS6 1-583): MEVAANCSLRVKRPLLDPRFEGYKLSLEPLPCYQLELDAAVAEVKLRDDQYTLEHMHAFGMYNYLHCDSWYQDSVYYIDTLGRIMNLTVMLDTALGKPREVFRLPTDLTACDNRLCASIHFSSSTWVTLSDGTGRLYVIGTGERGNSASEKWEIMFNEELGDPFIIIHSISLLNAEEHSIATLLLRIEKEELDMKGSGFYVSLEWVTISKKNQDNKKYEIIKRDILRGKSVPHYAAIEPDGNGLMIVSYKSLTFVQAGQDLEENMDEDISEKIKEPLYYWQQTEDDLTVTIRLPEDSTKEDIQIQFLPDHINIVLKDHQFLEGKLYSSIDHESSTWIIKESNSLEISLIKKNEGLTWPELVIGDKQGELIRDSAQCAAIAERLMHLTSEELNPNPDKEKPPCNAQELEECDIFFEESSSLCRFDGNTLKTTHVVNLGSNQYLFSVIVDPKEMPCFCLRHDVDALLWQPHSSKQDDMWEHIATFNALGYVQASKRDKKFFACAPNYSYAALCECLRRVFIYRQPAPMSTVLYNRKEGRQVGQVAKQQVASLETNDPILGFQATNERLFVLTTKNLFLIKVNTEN
# [4] = biological target: T3, cysteines in MDA-MB-231 and Ramos cells (Homo sapiens, UniProt Q9Y679)
# T3 sequence (Q9Y679 1-410): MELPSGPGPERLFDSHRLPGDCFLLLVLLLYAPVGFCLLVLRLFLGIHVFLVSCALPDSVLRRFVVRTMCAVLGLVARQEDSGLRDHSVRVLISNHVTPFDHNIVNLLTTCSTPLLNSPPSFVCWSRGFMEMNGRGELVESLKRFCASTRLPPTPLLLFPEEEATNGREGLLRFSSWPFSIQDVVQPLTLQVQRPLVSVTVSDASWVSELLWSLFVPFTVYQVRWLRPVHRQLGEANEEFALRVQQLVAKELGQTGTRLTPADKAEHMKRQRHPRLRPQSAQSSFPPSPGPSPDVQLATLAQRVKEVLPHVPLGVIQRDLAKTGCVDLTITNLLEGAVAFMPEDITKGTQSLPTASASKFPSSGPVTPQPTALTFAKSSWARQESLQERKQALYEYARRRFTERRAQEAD
# [5] = biological target: T4, cysteines in MDA-MB-231 and Ramos cells (Homo sapiens, UniProt O75439)
# T4 sequence (O75439 44-489): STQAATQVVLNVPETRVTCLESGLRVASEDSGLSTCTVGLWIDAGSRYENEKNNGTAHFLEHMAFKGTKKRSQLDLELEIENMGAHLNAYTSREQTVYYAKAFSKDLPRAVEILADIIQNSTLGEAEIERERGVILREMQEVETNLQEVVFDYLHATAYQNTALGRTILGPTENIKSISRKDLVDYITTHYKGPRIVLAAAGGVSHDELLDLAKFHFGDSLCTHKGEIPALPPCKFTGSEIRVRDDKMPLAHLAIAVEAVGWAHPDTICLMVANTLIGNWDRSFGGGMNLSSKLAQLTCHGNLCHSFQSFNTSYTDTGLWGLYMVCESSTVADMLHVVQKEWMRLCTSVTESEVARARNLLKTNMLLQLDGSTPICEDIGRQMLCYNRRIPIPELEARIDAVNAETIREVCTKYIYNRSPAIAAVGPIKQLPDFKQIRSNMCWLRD
# Sequence of cysteines in MDA-MB-231 and Ramos cells (Homo sapiens, UniProt Q96N67) (Q96N67 whole entry): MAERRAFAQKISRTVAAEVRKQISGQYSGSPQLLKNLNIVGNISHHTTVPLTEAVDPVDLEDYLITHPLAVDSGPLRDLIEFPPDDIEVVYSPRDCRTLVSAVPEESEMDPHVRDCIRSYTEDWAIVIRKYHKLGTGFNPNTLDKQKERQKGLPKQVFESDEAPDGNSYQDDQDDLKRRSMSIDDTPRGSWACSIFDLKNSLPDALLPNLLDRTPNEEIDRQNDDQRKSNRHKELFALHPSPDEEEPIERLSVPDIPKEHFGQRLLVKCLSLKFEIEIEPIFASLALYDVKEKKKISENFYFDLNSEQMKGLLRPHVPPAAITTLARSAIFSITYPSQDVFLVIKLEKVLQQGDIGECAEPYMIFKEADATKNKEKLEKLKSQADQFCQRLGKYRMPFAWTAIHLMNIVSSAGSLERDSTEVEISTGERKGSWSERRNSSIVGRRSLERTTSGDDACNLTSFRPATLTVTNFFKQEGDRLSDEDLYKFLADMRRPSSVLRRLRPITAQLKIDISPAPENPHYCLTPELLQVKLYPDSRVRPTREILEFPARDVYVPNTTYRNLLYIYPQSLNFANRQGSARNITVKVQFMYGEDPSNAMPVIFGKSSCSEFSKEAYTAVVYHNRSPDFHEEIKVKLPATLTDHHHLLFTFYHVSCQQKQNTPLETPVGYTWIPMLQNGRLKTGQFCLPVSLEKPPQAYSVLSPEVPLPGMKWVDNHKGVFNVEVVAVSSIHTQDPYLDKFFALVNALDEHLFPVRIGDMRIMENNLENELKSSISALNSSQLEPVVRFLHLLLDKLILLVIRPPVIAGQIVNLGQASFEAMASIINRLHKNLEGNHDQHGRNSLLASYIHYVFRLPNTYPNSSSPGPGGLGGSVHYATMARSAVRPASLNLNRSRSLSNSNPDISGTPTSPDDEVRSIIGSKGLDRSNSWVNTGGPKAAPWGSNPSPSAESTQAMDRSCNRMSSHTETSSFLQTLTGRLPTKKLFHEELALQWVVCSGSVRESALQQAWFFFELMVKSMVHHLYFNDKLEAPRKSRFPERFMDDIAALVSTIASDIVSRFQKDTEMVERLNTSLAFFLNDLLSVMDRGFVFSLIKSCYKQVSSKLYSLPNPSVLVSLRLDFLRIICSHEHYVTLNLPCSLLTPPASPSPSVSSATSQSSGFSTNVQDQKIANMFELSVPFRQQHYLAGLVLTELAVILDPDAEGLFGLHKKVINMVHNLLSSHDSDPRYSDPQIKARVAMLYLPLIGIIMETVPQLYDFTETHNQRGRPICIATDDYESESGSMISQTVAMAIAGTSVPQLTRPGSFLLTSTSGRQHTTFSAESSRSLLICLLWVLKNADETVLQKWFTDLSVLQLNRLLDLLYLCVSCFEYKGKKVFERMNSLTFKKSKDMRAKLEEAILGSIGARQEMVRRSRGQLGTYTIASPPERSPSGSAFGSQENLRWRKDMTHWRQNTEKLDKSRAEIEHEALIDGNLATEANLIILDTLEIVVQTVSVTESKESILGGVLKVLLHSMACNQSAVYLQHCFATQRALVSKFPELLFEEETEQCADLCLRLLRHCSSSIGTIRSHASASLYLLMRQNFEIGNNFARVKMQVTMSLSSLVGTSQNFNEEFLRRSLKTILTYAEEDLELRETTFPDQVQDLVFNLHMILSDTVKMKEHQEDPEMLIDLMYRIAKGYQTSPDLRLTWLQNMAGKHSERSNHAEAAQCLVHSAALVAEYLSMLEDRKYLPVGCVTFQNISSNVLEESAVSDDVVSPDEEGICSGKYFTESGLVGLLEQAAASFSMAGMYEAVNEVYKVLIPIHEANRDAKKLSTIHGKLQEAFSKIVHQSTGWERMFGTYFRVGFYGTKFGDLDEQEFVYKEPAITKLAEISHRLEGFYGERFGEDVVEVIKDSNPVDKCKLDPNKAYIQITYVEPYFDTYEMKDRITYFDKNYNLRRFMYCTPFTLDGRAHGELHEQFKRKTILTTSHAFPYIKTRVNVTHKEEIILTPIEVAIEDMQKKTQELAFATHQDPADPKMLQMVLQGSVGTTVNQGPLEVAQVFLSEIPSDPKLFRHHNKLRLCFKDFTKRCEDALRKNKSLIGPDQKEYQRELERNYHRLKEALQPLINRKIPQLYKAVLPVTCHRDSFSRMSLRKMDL
smiles,measurement,setting,value
COc1ccc2c(c1)CCCN2C(=O)CCl [compound 2],isoTOP-ABPP reactivity Q96P48_C900 ARAP1,[1]; 231,5.5
COc1ccc(C2CC(c3cccs3)=NN2C(=O)CCl)cc1 (stereo not shown) [compound 4],isoTOP-ABPP reactivity Q96N67_C2125 DOCK7,[2]; 100 μM in situ 231,4.1
same,isoTOP-ABPP reactivity Q96RS6_C376 NUDCD1,[3]; 100 μM in situ 231,1.6
same,isoTOP-ABPP reactivity Q9Y679_C391 AUP1,[4]; 100 μM in situ 231,20.0
COc1cc2c(cc1OC)CN(C(=O)CCl)CC2 [compound 8],isoTOP-ABPP reactivity Q96N67_C2125 DOCK7,"[2]; 200 μM, insitu, 231",5.4
same,isoTOP-ABPP reactivity Q9Y679_C391 AUP1,"[4]; 200 μM, insitu, 231",20.0
O=C(CCl)N1CCC(Cc2ccccc2)CC1 [compound 9],isoTOP-ABPP reactivity Q96RS6_C376 NUDCD1,"[3]; 200 μM, insitu, 231",2.2
O=C(CCl)N1CCN(S(=O)(=O)c2ccccc2F)CC1 [compound 10],"isoTOP-ABPP ratio, cysteine O75439_C265","[5]; 200 μM, insitu, ramos",2.1
same,"isoTOP-ABPP ratio, cysteine Q96P48_C900",[1]; 231,1.8
same,isoTOP-ABPP ratio Q96RS6_C376,"[3]; 200 μM, insitu, 231",5.7
Cn1cc(S(=O)(=O)N2CCOCC2)cc1C(=O)NC(=O)CCl [compound 11],"isoTOP-ABPP ratio, cysteine O75439_C265",[5]; 100 μM in situ 231,1.0
same,isoTOP-ABPP ratio Q96RS6_C376,[3]; 100 μM in situ 231,0.8
same,"isoTOP-ABPP ratio, cysteine Q9Y679_C391",[4]; 100 μM in situ 231,3.0
O=C(CCl)NC(=O)NC12CC3CC(CC(C3)C1)C2 [compound 12],"isoTOP-ABPP ratio, cysteine Q96P48_C900",[1]; 231,1.9
same,isoTOP-ABPP ratio Q96RS6_C376,"[3]; 200 μM, insitu, 231",1.1
O=C(CCl)NCCc1c[nH]c2ccccc12 [compound 13],"isoTOP-ABPP ratio, cysteine Q96P48_C900",[1]; 231,1.2
same,isoTOP-ABPP ratio Q96RS6_C376,"[3]; 200 μM, insitu, 231",0.7
same,isoTOP-ABPP ratio Q96RS6_C376,"[3]; 200 μM, insitu, ramos",1.2
O=C(CCl)NC12CC3CC(CC(C3)C1)C2 [compound 21],"isoTOP-ABPP ratio, cysteine Q96P48_C900",[1]; 231,0.7
same,isoTOP-ABPP ratio Q96RS6_C376,"[3]; 200 μM, insitu, 231",1.4
same,"isoTOP-ABPP ratio, cysteine Q9Y679_C391","[4]; 200 μM, insitu, 231",1.5
CC(C)CCOCCNC(=O)CCl [compound 27],isoTOP-ABPP ratio O75439_C265,"[5]; 200 μM, insitu, 231",1.6
same,isoTOP-ABPP ratio Q96N67_C2125,"[2]; 200 μM, insitu, 231",0.9
same,isoTOP-ABPP ratio Q9Y679_C391,"[4]; 200 μM, insitu, 231",1.2
COc1ccccc1OCCNC(=O)CCl [compound 28],isoTOP-ABPP ratio O75439_C265,"[5]; 200 μM, insitu, 231",0.6
O=C(CCl)N1CCN(CC(=O)N2CCOCC2)CC1 [compound 29],isoTOP-ABPP ratio Q96P48_C900,[1]; ramos,1.1
same,isoTOP-ABPP ratio Q96RS6_C376,"[3]; 200 μM, insitu, ramos",1.3
C=CC(=O)N(Cc1cccnc1)c1cc(C(F)(F)F)cc(C(F)(F)F)c1 [compound 31],isoTOP-ABPP ratio O75439_C265,"[5]; 200 μM, insitu, 231",1.0
same,isoTOP-ABPP ratio O75439_C265,"[5]; 200 μM, insitu, ramos",1.4
same,isoTOP-ABPP ratio Q96N67_C2125,"[2]; 200 μM, insitu, 231",0.8
same,isoTOP-ABPP ratio Q96P48_C900,[1]; 231,1.1
same,isoTOP-ABPP ratio Q96RS6_C376,"[3]; 200 μM, insitu, 231",0.8
C=CC(=O)Nc1cc(F)c(N2CCN(C(=O)OC(C)(C)C)CC2)c(F)c1 [compound 38],isoTOP-ABPP ratio Q96N67_C2125,"[2]; 200 μM, insitu, 231",1.5
same,isoTOP-ABPP ratio Q96RS6_C376,"[3]; 200 μM, insitu, 231",1.3
Cc1ccc(C=C(C#N)C(=O)NCCN2CCOCC2)cc1 [compound 41],isoTOP-ABPP ratio O75439_C265,"[5]; 200 μM, insitu, 231",1.3
same,isoTOP-ABPP ratio Q96N67_C2125,"[2]; 200 μM, insitu, 231",0.7
same,isoTOP-ABPP ratio Q96P48_C900,[1]; 231,0.5
same,isoTOP-ABPP ratio Q96RS6_C376,"[3]; 200 μM, insitu, 231",0.7
CC1CCc2ccccc2N1C(=O)CCl (stereo not shown) [compound 45],isoTOP-ABPP ratio Q9Y679_C391,"[4]; 200 μM, insitu, 231",20.0
O=C(CCl)Nc1cccc2ncccc12 [compound 51],isoTOP-ABPP ratio Q9Y679_C391,"[4]; 200 μM, insitu, 231",20.0
